From patent publication US20060154923A1, “N-phenyl-3-cyclopropylpyrazole-4-carbonitriles as ectoparasiticidal agents” (priority 2002, published 2006)
Read-outs that look alike come from different tables or passages of the source.

What was measured:
Type in all cases: in vivo
[1] = system: Rhipacephalus sanguineus, adult ticks; test: Contact activity against adult ticks, coated glass vial assay
Protocol: Evaluation of the Efficacy of Test Compounds Against Adult Ticks
The contact activity of a test compound against Rhipacephalus sanguineus, adult ticks, is evaluated in a coated glass vial assay. In this evaluation, a solution of test compound in acetone is allowed to dry on the interior surface of a 20 mL vial. Five unfed adult ticks are added to the treated vial and mortality is assessed periodically for up to 48 h. All treatments are replicated 2 times. The data are averaged.

[2] = system: newly emerged larvae of Lucilia sericata, blowfly; test: Efficacy against blowfly larvae, treated paper/serum bioassay; conditions: Lucilia sericata
Protocol: Evaluation of Efficacy of Test Compounds Against Blowfly Larvae
The efficacy of a test compound against newly emerged larvae of Lucilia sericata, blowfly, is evaluated using a treated paper/serum bioassay. In this evaluation, a solution of test compound in acetone is applied to a filter paper disc and the disc is allowed to dry. Bovine serum and about 20 newly emerged blowfly larvae are added to the treated paper disc and the mortality is assessed at 24 h and 48 h. The data are averaged.

[3] = system: Ctenocephatides felis, adult cat fleas; test: Contact activity against adult cat fleas, coated glass vial assay
Protocol: Evaluation of the Efficacy of Test Compounds Against Adult Cat Fleas
The contact activity of a test compound against Ctenocephatides felis, adult cat fleas, is evaluated in a coated, glass vial assay. In this evaluation, a solution of test compound in acetone is allowed to dry on the interior surface of a 20 mL vial. Ten unfed adult cat fleas are added to the treated vial and mortality is assessed periodically for up to 48 h. All treatments are replicated 2 times. The data are averaged.

[4] = 24 h, read-out: % Mortality 24 h
[5] = 48 h, read-out: % Mortality 48 h

Question: How did the “% Mortality 4 h” value ([1]; Conc. 0.78 ug/cm2, 4 h) turn out when `N#Cc1nn(-c2c(Cl)cc(C(F)(F)F)cc2Cl)c(N)c1[S+]([O-])C(F)(F)F` (stereo not shown) [Standard, Fipronil, reference compound] was run?
Answer: 90%

Question: And the “% Mortality 24 h” value ([1]; Conc. 0.78 ug/cm2, 24 h)?
Answer: 100%

Question: What about the “% Mortality 4 h” value ([1]; Conc. 7.80 ug/cm2, 4 h) of the same molecule?
Answer: 100%

Question: What about the “% Mortality 24 h” value ([1]; Conc. 7.80 ug/cm2, 24 h) of the same molecule?
Answer: 100%

Question: What about the mortality at 0.2 ppm [2, 4] of the same molecule?
Answer: 0%

Question: And the mortality at 2 ppm [2, 4]?
Answer: 100%

Question: And the mortality at 20 ppm [2, 4]?
Answer: 100%

Question: And the mortality at 0.2 ppm [2, 5]?
Answer: 100%

Question: And the mortality at 2 ppm [2, 5]?
Answer: 100%

Question: What about the mortality at 20 ppm [2, 5] of the same molecule?
Answer: 100%

Question: And the “% Mortality 4 h” value ([3]; Conc. 0.02 ug/cm2, 4 h)?
Answer: 0%

Question: And the “% Mortality 24 h” value ([3]; Conc. 0.02 ug/cm2, 24 h)?
Answer: 100%

Question: What about the “% Mortality 4 h” value ([3]; Conc. 0.2 ug/cm2, 4 h) of the same molecule?
Answer: 10%

Question: What about the “% Mortality 24 h” value ([3]; Conc. 0.2 ug/cm2, 24 h) of the same molecule?
Answer: 100%

Question: And the “% Mortality 4 h” value ([3]; Conc. 2 ug/cm2, 4 h)?
Answer: 30%

Question: What about the “% Mortality 24 h” value ([3]; Conc. 2 ug/cm2, 24 h) of the same molecule?
Answer: 100%
